Test [1] deals with T1, Human Aryl Hydrocarbon Receptor (AhR) (Homo sapiens, UniProt P35869).
T1 construct: purchased INDIGO Bioscience #1B06001-32; host or cells: AhR Reporter Cell (kit's proprietary reporter cells)
T1 sequence (P35869 11-848): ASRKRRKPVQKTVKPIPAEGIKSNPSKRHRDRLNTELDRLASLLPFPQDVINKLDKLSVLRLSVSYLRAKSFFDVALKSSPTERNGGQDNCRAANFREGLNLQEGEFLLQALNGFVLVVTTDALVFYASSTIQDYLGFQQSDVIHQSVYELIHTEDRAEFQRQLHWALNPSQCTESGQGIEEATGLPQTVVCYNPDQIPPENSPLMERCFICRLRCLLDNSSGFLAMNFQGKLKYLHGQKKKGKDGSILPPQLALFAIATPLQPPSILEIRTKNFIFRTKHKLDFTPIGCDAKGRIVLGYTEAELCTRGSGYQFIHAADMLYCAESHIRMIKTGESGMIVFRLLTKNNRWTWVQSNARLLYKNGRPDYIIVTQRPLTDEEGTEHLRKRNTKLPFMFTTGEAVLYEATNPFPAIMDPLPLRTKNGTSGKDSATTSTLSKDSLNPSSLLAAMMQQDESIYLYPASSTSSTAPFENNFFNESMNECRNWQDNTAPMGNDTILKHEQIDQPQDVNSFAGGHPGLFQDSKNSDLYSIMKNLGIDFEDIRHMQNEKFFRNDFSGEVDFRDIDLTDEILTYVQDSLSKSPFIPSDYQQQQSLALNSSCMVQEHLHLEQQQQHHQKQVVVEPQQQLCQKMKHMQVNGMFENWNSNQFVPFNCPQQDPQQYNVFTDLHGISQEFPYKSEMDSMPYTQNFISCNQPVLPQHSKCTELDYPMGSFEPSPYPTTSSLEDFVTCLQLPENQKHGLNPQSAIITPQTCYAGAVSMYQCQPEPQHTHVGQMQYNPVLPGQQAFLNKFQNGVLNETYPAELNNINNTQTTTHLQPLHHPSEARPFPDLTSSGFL
In words: AHR antagonist reporter assay in human cell line (INDIGO AhR Reporter Assay System, kynurenic acid activated). The settings on record: 200 μM kynurenic acid, 24 hours, luciferase; read-out: AhR Reporter Assay KA Antagonist Mode: IC50. The test is classed as cell-based. As for the experimental part:
The AhR reporter assay was performed following the protocol of the Human Aryl Hydrocarbon Receptor (AhR) Reporter Assay System (INDIGO Bioscience, #1B06001-32). AhR Reporter Cell was thawed and pre-incubated in Cell Recovery Medium (CRM) for 6 hours. The media was then removed and the cells were incubated with Compound Screening Medium (CSM) supplemented with 200 μM kynurenic acid for 24 hours in the absence (negative control) or presence of increasing concentrations of test compounds (typical dilution: […], 3.2 nM, 16 nM, 80 nM, 400 nM, 2 μM, 10 μM in duplicates). For positive inhibition control, cells activated with 200 μM kynurenic acid were incubated in the presence of literature AHR antagonists; alternatively un-activated cells were used as positive inhibition control. Following 24 hours incubation, the media was removed and Luciferase Detection Reagent (LDR) added. The firefly luciferase activity was quantified using a plate reader. Results were normalized by positive and negative controls.

In test [2] the test system is AHR-regulated gene CYP1A1 in human monocytic U937 cell line. Kind of test: AHR-regulated CYP1A1 expression in U937 cells (qPCR, kynurenic acid stimulated). The test is classed as cell-based. The settings on record: U-937, 200 μM KA, 16 hours, CYP1A1 vs GAPDH, read-out: Cyp ANATAG mode assay: IC50. As for the experimental part:
To evaluate the AHR inhibitory activity of the test compounds, quantitative PCR analysis was used to determine expression level of the AHR-regulated gene CYP1A1 in a human monocytic U937 cell line upon stimulation of 200 μM kynurenic acid (KA) in the absence or presence of AHR inhibitor. U937 cells were seeded at a concentration of 5×10^5 cells/well in 200 μL of growth medium in 96-well cell culture microplates. CYP1A1 expression was induced with 200 μM KA (positive control) in the absence or presence of the test compounds for 16 hours. Human U937 cells were typically incubated with eight different concentrations of test compounds (typical dilution: […], 3.2 nM, 16 nM, 80 nM, 400 nM, 2 μM, 10 μM) and analyzed in duplicate on the same cell culture microplate. After stimulation, the media was removed, the cell RNA was isolated using RNeasy Mini Kit (Qiagen, 74104) and reverse-transcribed to cDNA using PrimeScript RT reagent Kit (Perfect Real Time) (TaKaRa, RR037A). Unstimulated cells were used as the negative control. Taqman probes for human CYP1A1 (Hs01054797_g1) and human GAPDH (Hs02786624_g1) were used to analyze fold expression of CYP1A1 of GAPDH.
(In general: Quantitative PCR measures a nucleic acid by following its amplification.)

Usually IC50 stands for the midpoint of a concentration-inhibition curve. Regarding `O=C(N[C@H]1CCCCNC1=O)c1cc(-c2ccc(Cl)cc2)nn(-c2cccc(F)c2)c1=O` [28 - *stereo-pure], the IC50 in test [1] and in test [2] was less than 100 nM in each case.
With `Cn1cc(-n2nc(-c3ccc(Cl)cc3)cc(C(=O)N[C@H]3CCCCNC3=O)c2=O)cn1` [59 - *stereo-pure], the IC50 in test [1] and in test [2] was less than 100 nM each time.
Take `CNC(=O)C(C)NC(=O)c1cc(-c2ccc(Cl)cc2)nn(-c2cccc(F)c2)c1=O` (centres unmarked) [Compound 12]: the concentration for half-maximal inhibition (IC50) in test [1] and in test [2] was 100 to 400 nM each time.
Take `CC(NC(=O)c1cc(-c2ccc(Cl)cc2)nn(-c2cccc(F)c2)c1=O)C(=O)N(C)C` (centres unmarked) [Compound 13]: the IC50 in test [1] is less than 100 nM; in test [2], 100 to 400 nM.
Taken in the same sequence, the figures for `COCC(C)NC(=O)c1cc(-c2ccc(Cl)cc2)nn(-c2cnn(C)c2)c1=O` (centres unmarked) [Compound 32] were less than 100 nM and less than 100 nM.
The corresponding values for `COC[C@H](C)NC(=O)c1cc(-c2ccc(Cl)cc2)nn(-c2cn[nH]c2)c1=O` [Compound 62] are 100 to 400 nM and less than 100 nM.
Taken in the same sequence, the figures for `COC[C@H](C)NC(=O)c1cc(-c2ccc(C(F)(F)F)cc2)nn(-c2cnn(C)c2)c1=O` [Compound 70] were less than 100 nM and less than 100 nM.
As to `COC[C@H](C)NC(=O)c1cc(-c2ccc(C(=O)N(C)C)cc2)nn(-c2cnn(C)c2)c1=O` [Compound 90], the IC50 in test [1] and in test [2] was less than 100 nM each time.
As to `CN(C)C(=O)C(C)(C)NC(=O)c1cc(-c2ccc(Cl)cc2)nn(-c2cnn(C)c2)c1=O` [Compound 94], the IC50 in test [1] and in test [2] was less than 100 nM throughout.
With `CNC(=O)C(C)(C)NC(=O)c1cc(-c2ccc(Cl)cc2)nn(-c2cnn(C)c2)c1=O` [Compound 95], the half-maximal inhibitory concentration (IC50) in test [1] and in test [2] was less than 100 nM throughout.
Regarding `COC[C@H](C)NC(=O)c1cc(-c2ccc(Cl)cc2)nn(-c2cccc(F)c2)c1=O` [Compound 97], the IC50 in test [1] and in test [2] was less than 100 nM in each case.
In the case of `CNC(=O)[C@H](C)NC(=O)c1cc(-c2ccc(Cl)cc2)nn(-c2cccc(F)c2)c1=O` [Compound 98], the IC50 in test [1] and in test [2] was less than 100 nM throughout.
On to `C[C@H](NC(=O)c1cc(-c2ccc(Cl)cc2)nn(-c2cccc(F)c2)c1=O)C(=O)N(C)C` [Compound 99], for which the IC50 in test [1] and in test [2] was less than 100 nM each time.
As to `CNC(=O)[C@H](C)NC(=O)c1cc(-c2ccc(Cl)cc2)nn(-c2cnn(C)c2)c1=O` [Compound 100], the IC50 in test [1] and in test [2] was less than 100 nM in each case.
`COC[C@H](C)NC(=O)c1cc(-c2ccc3c(c2)OCC3)nn(-c2cnn(C)c2)c1=O` [Compound 112]: the figures for the IC50 in test [1] and in test [2] were less than 100 nM and 100 to 400 nM, respectively.
Taken in the same sequence, the figures for `COC[C@H](C)NC(=O)c1cc(-c2ccc3cc(OC)ccc3c2)nn(-c2cnn(C)c2)c1=O` [Compound 113] were less than 100 nM and less than 100 nM.
The corresponding values for `COC[C@H](C)NC(=O)c1cc(-c2ccc3cc(F)ccc3c2)nn(-c2cnn(C)c2)c1=O` [Compound 120] are less than 100 nM and less than 100 nM.
Taken in the same sequence, the figures for `COC[C@H](C)NC(=O)c1cc(-c2ccc3c(C)nn(C)c3c2)nn(-c2cnn(C)c2)c1=O` [Compound 123] were less than 100 nM and less than 100 nM.
Consider `COC[C@H](C)NC(=O)c1cc(-c2cnc(-c3ccc(Cl)cc3)nc2)nn(-c2cnn(C)c2)c1=O` [Compound 139], for which the IC50 in test [1] and in test [2] was less than 100 nM throughout.
`C[C@H](NC(=O)c1cc(-c2ccc(OC(F)(F)F)cc2)nn(-c2cnn(C)c2)c1=O)C(=O)N(C)C` [Compound 146]: the IC50 in test [1] and in test [2] was less than 100 nM throughout.
With `C[C@H](NC(=O)c1cc(-c2ccc(-c3ccc(Cl)cc3)cc2)nn(-c2cnn(C)c2)c1=O)C(=O)N(C)C` [Compound 147], the IC50 in test [1] and in test [2] was less than 100 nM in each case.
On to `C[C@@H](CO)NC(=O)c1cc(-c2ccc(-c3ccc(Cl)cc3)cc2)nn(-c2cnn(C)c2)c1=O` [Compound 148], for which the half-maximal inhibitory concentration (IC50) in test [1] and in test [2] was less than 100 nM throughout.
For `C[C@H](NC(=O)c1cc(-c2ccc(C(F)(F)F)cc2)nn(-c2cnn(C)c2)c1=O)C(=O)N(C)C` [Compound 150], the IC50 in test [1] and in test [2] was less than 100 nM in each case.
In the case of `COC[C@H](C)NC(=O)c1cc(-c2cc3ccccc3cn2)nn(-c2cnn(C)c2)c1=O` [Compound 153], the IC50 in test [1] and in test [2] was less than 100 nM each time.
In the case of `COC[C@H](C)NC(=O)c1cc(-n2cc(-c3ccc(Cl)cc3)cn2)nn(-c2cnn(C)c2)c1=O` [Compound 155], the IC50 in test [1] was less than 100 nM; in test [2] it was 100 to 400 nM.
The corresponding values for `COC[C@H](C)NC(=O)c1cc(-c2ccc(-c3ccc(Cl)cc3)nc2)nn(-c2cnn(C)c2)c1=O` [Compound 156] are less than 100 nM and less than 100 nM.
As to `C[C@@H](CO)NC(=O)c1cc(-c2ccc(-c3ccc(Cl)cc3)nc2)nn(-c2cnn(C)c2)c1=O` [Compound 157], the IC50 in test [1] and in test [2] was less than 100 nM in each case.
With `C[C@@H](CO)NC(=O)c1cc(-n2cc(-c3ccc(Cl)cc3)cn2)nn(-c2cnn(C)c2)c1=O` [Compound 161], the IC50 in test [1] and in test [2] was less than 100 nM in each case.
Take `C[C@@H](CO)NC(=O)c1cc(-c2cnc(-c3ccc(Cl)cc3)nc2)nn(-c2cnn(C)c2)c1=O` [Compound 163]: the IC50 in test [1] and in test [2] was less than 100 nM in each case.
For the molecule `CN1CCCC[C@H](NC(=O)c2cc(-c3ccc(C(F)(F)F)cc3)nn(-c3cnn(C)c3)c2=O)C1=O` [Compound 164], the IC50 in test [1] and in test [2] was less than 100 nM throughout.
Regarding `CN1CCCC[C@H](NC(=O)c2cc(-c3ccc(OC(F)(F)F)cc3)nn(-c3cnn(C)c3)c2=O)C1=O` [Compound 165], the IC50 in test [1] and in test [2] was less than 100 nM throughout.
In the case of `CN(C)C(=O)C(C)(C)NC(=O)c1cc(-c2ccc(C(F)(F)F)cc2)nn(-c2cnn(C)c2)c1=O` [Compound 167], the IC50 in test [1] and in test [2] was less than 100 nM throughout.
With `CN(C)C(=O)C(C)(C)NC(=O)c1cc(-c2ccc(OC(F)(F)F)cc2)nn(-c2cnn(C)c2)c1=O` [Compound 168], the IC50 in test [1] is less than 100 nM; in test [2], 100 to 400 nM.
Taken in the same sequence, the figures for `CNC(=O)[C@H](C)NC(=O)c1cc(-c2ccc(C(F)(F)F)cc2)nn(-c2cnn(C)c2)c1=O` [Compound 169] were less than 100 nM and less than 100 nM.
The corresponding values for `CNC(=O)[C@H](C)NC(=O)c1cc(-c2ccc(OC(F)(F)F)cc2)nn(-c2cnn(C)c2)c1=O` [Compound 170] are less than 100 nM and less than 100 nM.
`CNC(=O)[C@H](C)NC(=O)c1cc(-c2ccc(-c3ccc(Cl)cc3)cc2)nn(-c2cnn(C)c2)c1=O` [Compound 171]: the IC50 in test [1] and in test [2] was less than 100 nM each time.
In the case of `CN1CCCC[C@H](NC(=O)c2cc(-c3ccc(C(F)(F)F)nc3)nn(-c3cnn(C)c3)c2=O)C1=O` [Compound 172], the half-maximal inhibitory concentration (IC50) in test [1] and in test [2] was less than 100 nM each time.

For the origin of these results see US20240351988A1, “ARYL HYDROCARBON RECEPTOR MODULATORS AND THEIR USE IN THE TREATMENT OF DISEASES AND DISORDERS” (Allianthera (Suzhou) Biopharmaceutical Co., Ltd., priority 2021, published 2024).
